Reference: patent publication US9676789B2, “Aminated derivative of homoharringtonine, preparation method therefor, and application thereof” (HANGZHOU BENSHENG PHARMACEUTICAL CO., LTD., priority 2011, dated 2017)
Converted amounts (≈) assume the structure as drawn.

What was measured:
[1] = system: H9 (acute lymphoblastic leukemia, ALL); assay: MTT leukemia cell growth inhibition, 72 h; assay type: cell-based, human; conditions: Homo sapiens, H9, 72 h; for IC50: read-out: IC50; for IC90: read-out: IC90
Excerpt: (§1) Leukemia cell lines: K562/adr (drug-resistant, chronic myeloid leukemia, CML), NB4 (acute promyelocytic leukemia, AML), Kasumi-1 (acute myeloid leukemia M2 type, AML-M2), Jurkat (acute lymphoblastic leukemia, ALL), all of which are donated by Cancer Research Institute of Zhejiang University, China; and H9 (acute lymphoblastic leukemia, ALL), which is purchased from China Center for Type Culture Collection.
(§2) Obtaining 6000 well-growing leukemia cells and inoculating them into wells of a 96-well cell culture plate. The culture medium is the 1640 cell culture medium containing 10% fetal bovine serum. After adding the homoharringtonine derivatives of different concentrations and mixing uniformly, placing the plate in a carbon dioxide cell incubator (5% CO2) at 37° C. and incubating for 72 hours. Then the viable cell concentration is determined by the MTT method. In this experiment, the cell viability in control group (not treated with any compound) is set as 100%.

[2] = system: Jurkat (acute lymphoblastic leukemia, ALL); assay: MTT leukemia cell growth inhibition, 72 h; assay type: cell-based, human; conditions: Homo sapiens; for IC50: read-out: IC50; for IC90: read-out: IC90
Excerpt: as §1, §2

[3] = system: K562/adr (drug-resistant, chronic myeloid leukemia, CML); assay: MTT leukemia cell growth inhibition, 72 h; assay type: cell-based, human; conditions: Homo sapiens, K562/Adr; for IC50: read-out: IC50; for IC90: read-out: IC90
Excerpt: as §1, §2

[4] = system: Kasumi-1 (acute myeloid leukemia M2 type, AML-M2); assay: MTT leukemia cell growth inhibition, 72 h; assay type: cell-based, human; conditions: Homo sapiens, Kasumi-1, 72 h; for IC50: read-out: IC50; for IC90: read-out: IC90
Excerpt: as §1, §2

[5] = system: NB4 (acute promyelocytic leukemia, AML); assay: MTT leukemia cell growth inhibition, 72 h; assay type: cell-based, human; conditions: Homo sapiens, NB4, 72 h; for IC50: read-out: IC50; for IC90: read-out: IC90
Excerpt: as §1, §2

[6] = system: RPMI8226 (multiple myeloma); assay: MTT multiple myeloma cell growth inhibition, 72 h; assay type: cell-based, human; conditions: Homo sapiens, RPMI-8226, RPMI8226, 72 h; for IC50: read-out: IC50; for IC90: read-out: IC90
Experimental: Multiple myeloma and lymphoma cell lines: RPMI8226 (multiple myeloma), purchased from Fuxiang Bio-tech Co. Ltd., Shanghai, China.
Obtaining 6000 well-growing leukemia cells and inoculating them into wells of a 96-well cell culture plate. The culture medium is the 1640 cell culture medium containing 10% fetal bovine serum. After adding the homoharringtonine derivatives of different concentrations and mixing uniformly, placing the plate in a carbon dioxide cell incubator (5% CO2) at 37° C. and incubating for 72 hours. Then the viable cell concentration is determined by the MTT method.

A549 (human lung cancer) = assay: MTT solid tumor cell growth inhibition, 72 h; assay type: cell-based; conditions: Homo sapiens, A549, 72 h; for IC50: read-out: IC50; for IC90: read-out: IC90
Experimental: (§3) Human solid tumor cell lines: Hep-2 ([…]), A549 (human lung cancer), CaES-17 (esophageal cancer cell), PC-3 (prostate cancer), CNE (nasopharyngeal carcinoma cell), and SK-OV-3 (ovarian cancer cell), all of which are purchased from China Center For Type Culture Collection; RKO (human colon adenocarcinoma cell), MGC 803 (human gastric cancer cell), MG63 (osteosarcoma) and U87 MG (malignant glioma cell), all of which are purchased from Fuxiang Bio-tech Co. Ltd., Shanghai, China; PANC-1 (pancreatic cancer), Huh7 (human liver cancer cell), Becap37 (human breast cancer cell), and Hela (human cervical cancer cell), all of which are donated by Cancer Research Institute of Zhejiang University, China.
(§4) Obtaining 4000 well-growing human solid tumor cells and inoculating them into wells of a 96-well cell culture plate. The culture medium is DMEM High Glucose cell culture medium containing 10% fetal bovine serum. The plate is placed in a carbon dioxide cell incubator (5% CO2) at 37° C. and incubating for 24 hours. After adding the homoharringtonine derivatives of different concentration and mixing uniformly, the plate is placed in a carbon dioxide cell incubator (5% CO2) at 37° C. and incubating for 72 hours. Then the viable cell concentration is determined by the MTT method and the cell viability (%) after drug treatment is calculated. In this experiment, the cell viability of control group (not treated with any compound) is set as 100%.

[7] = system: Becap37 (human breast cancer cell); assay: MTT solid tumor cell growth inhibition, 72 h; assay type: cell-based; conditions: Homo sapiens, Becap37, 72 h; for IC50: read-out: IC50; for IC90: read-out: IC90
Experimental: as §3, §4

[8] = system: Huh7 (human liver cancer cell); assay: MTT solid tumor cell growth inhibition, 72 h; assay type: cell-based; conditions: Homo sapiens, Huh-7, Huh7, 72 h; for IC50: read-out: IC50; for IC90: read-out: IC90
Experimental: as §3, §4

[9] = system: MGC 803 (human gastric cancer cell); assay: MTT solid tumor cell growth inhibition, 72 h; assay type: cell-based; conditions: Homo sapiens, MGC 803, 72 h; for IC50: read-out: IC50; for IC90: read-out: IC90
Experimental: as §3, §4

[10] = system: RKO (human colon adenocarcinoma cell); assay: MTT solid tumor cell growth inhibition, 72 h; assay type: cell-based; conditions: Homo sapiens; for IC50: read-out: IC50; for IC90: read-out: IC90
Experimental: as §3, §4

MG63 (osteosarcoma) = assay: MTT solid tumor cell growth inhibition, 72 h; assay type: cell-based, human; conditions: Homo sapiens, MG 63, 72 h; for IC50: read-out: IC50; for IC90: read-out: IC90
Experimental: as §3, §4

[11] = system: PANC-1 (pancreatic cancer); assay: MTT solid tumor cell growth inhibition, 72 h; assay type: cell-based, human; conditions: Homo sapiens, PANC-1, 72 h; for IC50: read-out: IC50; for IC90: read-out: IC90
Experimental: as §3, §4

[12] = system: U87 MG (malignant glioma cell); assay: MTT solid tumor cell growth inhibition, 72 h; assay type: cell-based, human; conditions: Homo sapiens, U-87 MG
Experimental: as §3, §4

Row | Compound | IC50 [1] | IC90 [1] | IC50 [2] | IC90 [2] | IC50 [3] | IC90 [3] | IC50 [4] | IC90 [4] | IC50 [5] | IC90 [5] | IC50 [6] | IC90 [6] | IC50 (A549 (human lung cancer)) | IC90 (A549 (human lung cancer)) | IC50 [7] | IC90 [7] | IC50 [8] | IC90 [8] | IC50 [9] | IC90 [9] | also measured
1 | COC1=C[C@]23CCCN2CCc2cc4c(cc2[C@@H]3[C@@H]1OC(=O)[C@@](O)(CCCC(C)(C)O)CC(=O)N1CCN(CCO)CC1)OCO4 [BS-HH-020] | > 16 µg/mL | > 16 µg/mL | 15.1 µg/mL (≈ 23.5 µM) | > 16 µg/mL | > 16 µg/mL | > 16 µg/mL | > 16 µg/mL | > 16 µg/mL | 7.46 µg/mL (≈ 11.6 µM) | 15.8 µg/mL (≈ 24.5 µM) | 16 µg/mL (≈ 24.9 µM) | > 16 µg/mL | > 16 µg/mL | > 16 µg/mL | > 16 µg/mL | > 16 µg/mL | > 16 µg/mL | > 16 µg/mL | 7.5 µg/mL (≈ 11.6 µM) | > 16 µg/mL | IC50 [10]: 8.38 µg/mL (≈ 13 µM); IC90 [10]: > 16 µg/mL; IC50 (MG63 (osteosarcoma)): 14.1 µg/mL (≈ 22 µM); IC90 (MG63 (osteosarcoma)): > 16 µg/mL; IC50 [11]: > 16 µg/mL; IC90 [11]: > 16 µg/mL
2 | COC1=C[C@]23CCCN2CCc2cc4c(cc2[C@@H]3[C@@H]1OC(=O)[C@@](O)(CCCC(C)(C)O)CC(=O)N1CCC(O)CC1)OCO4 [BS-HH-021] | > 16 µg/mL | > 16 µg/mL | 13.4 µg/mL (≈ 21.8 µM) | > 16 µg/mL | > 16 µg/mL | > 16 µg/mL | 14.6 µg/mL (≈ 23.7 µM) | > 16 µg/mL | 8 µg/mL (≈ 13 µM) | 16 µg/mL (≈ 26 µM) | 16 µg/mL (≈ 26 µM) | > 16 µg/mL | > 16 µg/mL | > 16 µg/mL | > 16 µg/mL | > 16 µg/mL | > 16 µg/mL | > 16 µg/mL | > 16 µg/mL | > 16 µg/mL | IC50 [10]: 8.51 µg/mL (≈ 13.8 µM); IC90 [10]: > 16 µg/mL; IC50 (MG63 (osteosarcoma)): > 16 µg/mL; IC90 (MG63 (osteosarcoma)): > 16 µg/mL; IC50 [11]: > 16 µg/mL; IC90 [11]: > 16 µg/mL
3 | COC1=C[C@]23CCCN2CCc2cc4c(cc2[C@@H]3[C@@H]1OC(=O)[C@@](O)(CCCC(C)(C)O)CC(=O)N1CCCC(O)C1)OCO4 (stereo partly shown) [BS-HH-025] | > 16 µg/mL | > 16 µg/mL | > 16 µg/mL | > 16 µg/mL | > 16 µg/mL | > 16 µg/mL | > 16 µg/mL | > 16 µg/mL | 8.31 µg/mL (≈ 13.5 µM) | > 16 µg/mL | > 16 µg/mL | > 16 µg/mL | > 16 µg/mL | > 16 µg/mL | > 16 µg/mL | > 16 µg/mL | > 16 µg/mL | > 16 µg/mL | > 16 µg/mL | > 16 µg/mL | IC50 [10]: 15.3 µg/mL (≈ 25 µM); IC90 [10]: > 16 µg/mL; IC50 (MG63 (osteosarcoma)): > 16 µg/mL; IC90 (MG63 (osteosarcoma)): > 16 µg/mL; IC50 [11]: > 16 µg/mL; IC90 [11]: > 16 µg/mL
4 | COC1=C[C@]23CCCN2CCc2cc4c(cc2[C@@H]3[C@@H]1OC(=O)[C@@](O)(CCCC(C)(C)O)CC(=O)NCc1cccs1)OCO4 [BS-HH-055] | 4 µg/mL (≈ 6.38 µM) | 10.6 µg/mL (≈ 17 µM) | 1.58 µg/mL (≈ 2.52 µM) | 8 µg/mL (≈ 12.8 µM) | 6.24 µg/mL (≈ 9.96 µM) | 16 µg/mL (≈ 25.5 µM) | 1.3 µg/mL (≈ 2.07 µM) | 6.68 µg/mL (≈ 10.7 µM) | 2.38 µg/mL (≈ 3.8 µM) | 7.61 µg/mL (≈ 12.1 µM) | 2.1 µg/mL (≈ 3.35 µM) | 16 µg/mL (≈ 25.5 µM) | 11.2 µg/mL (≈ 17.9 µM) | > 16 µg/mL | 5.9 µg/mL (≈ 9.41 µM) | > 16 µg/mL | 4.83 µg/mL (≈ 7.71 µM) | > 16 µg/mL | 6.06 µg/mL (≈ 9.67 µM) | 19 µg/mL (≈ 30.3 µM) | IC50 [10]: 2.75 µg/mL (≈ 4.39 µM); IC90 [10]: 6.97 µg/mL (≈ 11.1 µM); IC50 (MG63 (osteosarcoma)): 3.83 µg/mL (≈ 6.11 µM); IC90 (MG63 (osteosarcoma)): 16 µg/mL (≈ 25.5 µM); IC50 [11]: 8 µg/mL (≈ 12.8 µM); IC90 [11]: > 16 µg/mL; IC50 ([12]; read-out: IC50): 6.54 µg/mL (≈ 10.4 µM); IC90 ([12]; read-out: IC90): > 16 µg/mL
